From patent US20150328245A1, “Agents for Eliminating Tumour-Initiating Cells” (priority 2012, published 2015)

Experiments:
Format in all cases: cell-based
MDAMB231 [1] = experiment: In vitro colorimetric cell death assay (MTT); conditions: Homo sapiens, MDA-MB-231, 48 hours
Description: (§1) It's an in vitro colorimetric assay for assessing cell viability where the cells are grown in Two-dimensional surface.
(§2) An exemplary procedure for the assay follows. Cancer cells and normal cells were plated in a 96 well plate as per predetermined plating efficiency. The plate was incubated for 24 hours in a 5% CO2 atmosphere at 37 degrees Celsius, a range of concentrations of the compounds I-1, I-2 and I-3 as well as cisplatin (known chemotherapeutic agents) were added to the separate wells, the plate was incubated further for 48 hours in a 5% CO2 atmosphere, the plate was centrifuged twice at 3000 rpm for 3 minutes, the supernatant fluid was discarded, 100 uL of 0.5 mg/mL MTT solution was added and the plate was incubated for 4 hours in a 5% CO2 atmosphere at 37 degrees Celsius. The plate was then centrifuged twice at 3000 rpm for 3 minutes, supernatant, was aspirated very carefully, 200 uL DMSO was added to each well to solubilize MTT crystals and mixed well by shaking the plate, the plate was incubated for 10 minutes in a 5% CO2 atmosphere at 37 degrees Celsius, the plate placed on the shaker of an ELISA plate reader and the absorbance at 570 nm was measured, then the percentage of viable cells remaining was calculated by first subtracting the background absorbance then comparing to the absorbance of a non-drug-treated cell sample, and the results were plotted on a graph to determine the IC50 for the compounds and cisplatin.

T47D [2] = experiment: In vitro colorimetric cell death assay (MTT); conditions: Homo sapiens, 48 hours
Description: as §1, §2

DU145 [3] = experiment: In vitro colorimetric cell death assay (MTT); conditions: Homo sapiens, DU-145; DU145, MTT, 48 hours; read-out: IC 50
Description: as §1, §2

PC3 [4] = experiment: In vitro colorimetric cell death assay (MTT); conditions: Homo sapiens, PC-3, 48 hours
Description: as §1, §2

LNCaP = experiment: In vitro colorimetric cell death assay (MTT); conditions: Homo sapiens, 48 hours
Description: as §1, §2

[5] = tested on: breast cancer cells MDA MB 231; experiment: In vitro 3D primary sphere forming stem cell assay
Description: (§3) This assay measures the ability of cancer stem cells to form spheres in a serum free media where the spheres are in a suspended form. Through this assay we evaluated the potency of the compounds of the invention to kill cancer stem cells in comparison with the known chemotherapeutic agent Cisplatin.
(§4) An exemplary procedure for the assay follows. Cells were grown in three dimensions on a plastic substrate, harvested in suspension in serum-free media, then the cells in the sample were trypsinized and a single cell suspension was formed by passing through a cell strainer. The cells were diluted according to the predetermined plating efficiency for the cell line being studied by suspending the cells in stem cell culture medium. 100 uL of this suspension was added into each well of a 96 well suspension plate, and the plate was incubated at 37 degrees Celsius in 5% CO2 atmosphere for 24 hours, then 2 uL of appropriate concentrations of the compounds of the invention and cisplatin were added into each respective well along with 100 uL of stem cell culture medium, and the plates were incubated at 37 degrees Celsius under 5% CO2 atmosphere for 72 hours. 2.5 uL of the compounds of the invention and cisplatin were added to each respective well along with 50 uL of stem cell culture medium and then the plates were incubated at 37 degrees Celsius under 5% CO2 atmosphere for 72 hours. 3 uL of appropriate concentrations of the compounds of the invention and cisplatin were added to each respective well along with 50 uL of stem cell culture medium and then the plates were incubated at 37 degrees Celsius under 5% CO2 atmosphere for 72 hours, then the spheres formed were observed under a microscope then counted and scored by size.
(§5) Results of the in vitro 3D sphere forming stem cell assay are set forth in a tabular manner. The number in each box is the total number of spheres formed in the presence of either cisplatin or compound I-2 or compound I-3 at each drug concentration. GC refers to a growth control performed in the absence of drug or solvent (DMSO). GCD refers to a growth control performed in the absence of drug, but in the presence of DMSO.

[6] = tested on: breast cancer cells MCF-7; experiment: In vitro 3D primary sphere forming stem cell assay
Description: as §3, §4, §5

cancer cell lines = experiment: In vitro colorimetric cell death assay (MTT), overall statement
Description: as §1, §2

MDAMB231 [7] = experiment: In vitro soft agar colony forming growth assay; conditions: Homo sapiens, MDA-MB-231, 168 h; MDAMB231, soft agar, one week; read-out: IC 50
Description: (§6) The Soft Agar Assay for Colony Formation is considered the most stringent assay for detecting malignant transformation of cells. In this assay the cells are cultured in medium with low percentage of agar.
(§7) An exemplary procedure for the assay follows.

T47D [8] = experiment: In vitro soft agar colony forming growth assay; conditions: Homo sapiens, 168 h, one week
Description: as §6, §7

DU145 [9] = experiment: In vitro soft agar colony forming growth assay; conditions: Homo sapiens, DU-145, 168 h, one week
Description: as §6, §7

PC3 [10] = experiment: In vitro soft agar colony forming growth assay; conditions: Homo sapiens, PC-3, 168 h, one week
Description: as §6, §7

## COc1cc2c(OC3OCC(O)C(O)C3O)c3c(c(-c4ccc5c(c4)OCO5)c2cc1OC)C(=O)OC3 (stereo not shown) [I-3, 9-(1,3-benzodioxol-5-yl)-4-[(3,4,5-trihydroxytetrahydro-2H-pyran-2-yl)oxy]naphtho-6,7-dimethoxynaphtho[2,3-c]furan-1(3H)-one]
MDAMB231 [1]
  IC50: 10 µM
T47D [2]
  IC50: 21.1 µM
DU145 [3]
  IC50: 9.55 µM
PC3 [4]
  IC50: 13.5 µM
LNCaP
  IC50: 3.16 µM
[5]; MDA MB 231
  numbers of primary spheres formed, compared with cisplatin: significantly less
[5]; final conc. 0.125 μM
  # of 3D Primary Spheres Formed of Cells MDA MB231 (±SD): 54(±5)
[5]; final conc. 1.25 μM
  # of 3D Primary Spheres Formed of Cells MDA MB231 (±SD): 38(±5)
[5]; final conc. 12.5 μM
  # of 3D Primary Spheres Formed of Cells MDA MB231 (±SD): 31(±5)
[5]; final conc. 125 μM
  # of 3D Primary Spheres Formed of Cells MDA MB231 (±SD): 9(±2)
[5]; final conc. 1250 μM
  # of 3D Primary Spheres Formed of Cells MDA MB231 (±SD): 0(±0)
[6]; MCF-7
  numbers of primary spheres formed, compared with cisplatin: significantly less
[6]; final conc. 0.125 μM
  # of 3D Primary Spheres Formed of Cells MCF-7 (±SD): 74(±10)
[6]; final conc. 1.25 μM
  # of 3D Primary Spheres Formed of Cells MCF-7 (±SD): 57(±5)
[6]; final conc. 12.5 μM
  # of 3D Primary Spheres Formed of Cells MCF-7 (±SD): 48(±10)
[6]; final conc. 125 μM
  # of 3D Primary Spheres Formed of Cells MCF-7 (±SD): 28(±6)
[6]; final conc. 1250 μM
  # of 3D Primary Spheres Formed of Cells MCF-7 (±SD): 0(±0)
Cancer cell lines
  anticancer activity in cancer cell lines as compared to cisplatin: high anticancer activity
MDAMB231 [7]
  IC50: 0.55 µM
T47D [8]
  IC50: 0.7 µM
DU145 [9]
  IC50: 0.661 µM
PC3 [10]
  IC50: 0.85 µM
